According to ChEMBL document CHEMBL5724914, “Linking interpersonal differences in gut microbiota composition and drug biotransformation activity” (2024):

Experiments:
[1] = The drug is tested on WLS-007 corresponding to human gut metagenome with ENA study accession number: PRJEB37062 and ENA sample accession number: ERS12561742 for biotransformation under anaerobic condition. The drug concentrations were measured over 9 timepoints collected between 0 and 24 hours of incubation by liquid-chromatography-coupled mass spectrometry (LC–MS); settings: 2 µM
[2] = The drug is tested on WLS-370 corresponding to human gut metagenome with ENA study accession number: PRJEB37062 and ENA sample accession number: ERS12561793 for biotransformation under anaerobic condition. The drug concentrations were measured over 9 timepoints collected between 0 and 24 hours of incubation by liquid-chromatography-coupled mass spectrometry (LC–MS); settings: 2 µM
[3] = human gut metagenome, 24 h, 2 µM
[4] = human gut metagenome, 24 h, 2 µM; remark: listed apart in the source
[5] = The drug is tested on Z-008 corresponding to metagenome with ENA study accession number: PRJEB37062 and ENA sample accession number: ERS12561808 for biotransformation under anaerobic condition. The drug concentrations were measured over 9 timepoints collected between 0 and 24 hours of incubation by liquid-chromatography-coupled mass spectrometry (LC–MS); settings: 2 µM
[6] = human gut metagenome, 24 h, 2 µM; remark: listed apart in the source
[7] = The drug is tested on WLS-010 corresponding to human gut metagenome with ENA study accession number: PRJEB37062 and ENA sample accession number: ERS12561743 for biotransformation under anaerobic condition. The drug concentrations were measured over 9 timepoints collected between 0 and 24 hours of incubation by liquid-chromatography-coupled mass spectrometry (LC–MS); settings: 2 µM
[8] = human gut metagenome, 24 h, 2 µM; remark: listed apart in the source
[9] = human gut metagenome, 24 h, 2 µM; remark: listed apart in the source
[10] = The drug is tested on Z-014 corresponding to rat gut metagenome with ENA study accession number: PRJEB37062 and ENA sample accession number: ERS12561814 for biotransformation under anaerobic condition. The drug concentrations were measured over 9 timepoints collected between 0 and 24 hours of incubation by liquid-chromatography-coupled mass spectrometry (LC–MS); settings: 2 µM
[11] = The drug is tested on WLS-090 corresponding to human gut metagenome with ENA study accession number: PRJEB37062 and ENA sample accession number: ERS12561753 for biotransformation under anaerobic condition. The drug concentrations were measured over 9 timepoints collected between 0 and 24 hours of incubation by liquid-chromatography-coupled mass spectrometry (LC–MS); settings: 2 µM
[12] = The drug is tested on WLS-069 corresponding to human gut metagenome with ENA study accession number: PRJEB37062 and ENA sample accession number: ERS12561748 for biotransformation under anaerobic condition. The drug concentrations were measured over 9 timepoints collected between 0 and 24 hours of incubation by liquid-chromatography-coupled mass spectrometry (LC–MS); settings: 2 µM
[13] = The drug is tested on WLS-027 corresponding to human gut metagenome with ENA study accession number: PRJEB37062 and ENA sample accession number: ERS12561744 for biotransformation under anaerobic condition. The drug concentrations were measured over 9 timepoints collected between 0 and 24 hours of incubation by liquid-chromatography-coupled mass spectrometry (LC–MS); settings: 2 µM
[14] = human gut metagenome, 24 h, 2 µM; remark: listed apart in the source
[15] = The drug is tested on Z-025 corresponding to rabbit gut metagenome with ENA study accession number: PRJEB37062 and ENA sample accession number: ERS12561824 for biotransformation under anaerobic condition. The drug concentrations were measured over 9 timepoints collected between 0 and 24 hours of incubation by liquid-chromatography-coupled mass spectrometry (LC–MS); settings: 2 µM
[16] = human gut metagenome, 24 h, 2 µM; remark: listed apart in the source
[17] = The drug is tested on Z-030 corresponding to mouse gut metagenome with ENA study accession number: PRJEB37062 and ENA sample accession number: ERS12561829 for biotransformation under anaerobic condition. The drug concentrations were measured over 9 timepoints collected between 0 and 24 hours of incubation by liquid-chromatography-coupled mass spectrometry (LC–MS); settings: 2 µM
[18] = The drug is tested on WLS-082 corresponding to human gut metagenome with ENA study accession number: PRJEB37062 and ENA sample accession number: ERS12561751 for biotransformation under anaerobic condition. The drug concentrations were measured over 9 timepoints collected between 0 and 24 hours of incubation by liquid-chromatography-coupled mass spectrometry (LC–MS); settings: 2 µM
[19] = The drug is tested on Z-013 corresponding to rabbit gut metagenome with ENA study accession number: PRJEB37062 and ENA sample accession number: ERS12561813 for biotransformation under anaerobic condition. The drug concentrations were measured over 9 timepoints collected between 0 and 24 hours of incubation by liquid-chromatography-coupled mass spectrometry (LC–MS); settings: 2 µM
[20] = human gut metagenome, 24 h, 2 µM; remark: listed apart in the source
Further: call rule not given here.

Compound	Bacterial Biotransformation [1]	Bacterial Biotransformation [2]	Bacterial Biotransformation [3]	Bacterial Biotransformation [4]	Bacterial Biotransformation [5]	Bacterial Biotransformation [6]	Bacterial Biotransformation [7]	Bacterial Biotransformation [8]	Bacterial Biotransformation [9]	Bacterial Biotransformation [10]	Bacterial Biotransformation [11]	Bacterial Biotransformation [12]	Bacterial Biotransformation [13]	Bacterial Biotransformation [14]	Bacterial Biotransformation [15]	Bacterial Biotransformation [16]	Bacterial Biotransformation [17]	Bacterial Biotransformation [18]	Bacterial Biotransformation [19]	Bacterial Biotransformation [20]
CN1CCc2c(c3ccccc3n2Cc2ccccc2)C1.CN1CCc2c(c3ccccc3n2Cc2ccccc2)C1.O=S(=O)(O)c1cccc2c(S(=O)(=O)O)cccc12	Compound NOT metabolized	Compound metabolized	Compound NOT metabolized	Compound NOT metabolized	Compound NOT metabolized	Compound metabolized	Compound NOT metabolized	Compound NOT metabolized	Compound metabolized	Compound NOT metabolized	Compound metabolized	Compound NOT metabolized	Compound metabolized	Compound NOT metabolized	Compound metabolized	Compound metabolized	Compound NOT metabolized	Compound NOT metabolized	Compound NOT metabolized	Compound NOT metabolized
CC(C)(C#N)c1cc(Cn2cncn2)cc(C(C)(C)C#N)c1 [ANASTROZOLE]	Compound NOT metabolized	Compound metabolized	Compound NOT metabolized	Compound metabolized	Compound NOT metabolized	Compound metabolized	Compound NOT metabolized	Compound NOT metabolized	Compound NOT metabolized	Compound NOT metabolized	Compound metabolized	Compound metabolized	Compound NOT metabolized	Compound NOT metabolized	Compound NOT metabolized	Compound metabolized	Compound NOT metabolized	Compound NOT metabolized	Compound NOT metabolized	Compound NOT metabolized
O=P(O)(O)O.c1ccc(CN(CC2=NCCN2)c2ccccc2)cc1 [ANTAZOLINE PHOSPHATE]	Compound metabolized	Compound metabolized	Compound NOT metabolized	Compound metabolized	Compound NOT metabolized	Compound NOT metabolized	Compound NOT metabolized	Compound NOT metabolized	Compound NOT metabolized	Compound NOT metabolized	Compound metabolized	Compound NOT metabolized	Compound NOT metabolized	Compound NOT metabolized	Compound NOT metabolized	Compound metabolized	Compound NOT metabolized	Compound NOT metabolized	Compound NOT metabolized	Compound metabolized

Results, then the molecule that gave them:

Bacterial Biotransformation [1]	Bacterial Biotransformation [2]	Bacterial Biotransformation [3]	Bacterial Biotransformation [4]	Bacterial Biotransformation [5]	Bacterial Biotransformation [6]	Bacterial Biotransformation [7]	Bacterial Biotransformation [8]	Bacterial Biotransformation [9]	Bacterial Biotransformation [10]	Bacterial Biotransformation [11]	Bacterial Biotransformation [12]	Bacterial Biotransformation [13]	Bacterial Biotransformation [14]	Bacterial Biotransformation [15]	Bacterial Biotransformation [16]	Bacterial Biotransformation [17]	Bacterial Biotransformation [18]	Bacterial Biotransformation [19]	Bacterial Biotransformation [20]	Compound
Compound metabolized	Compound metabolized	Compound metabolized	Compound metabolized	Compound NOT metabolized	Compound metabolized	Compound metabolized	Compound NOT metabolized	Compound metabolized	Compound NOT metabolized	Compound metabolized	Compound metabolized	Compound NOT metabolized	Compound metabolized	Compound NOT metabolized	Compound metabolized	Compound NOT metabolized	Compound metabolized	Compound NOT metabolized	Compound NOT metabolized	COc1cc2nc(N(C)CCCNC(=O)C3CCCO3)nc(N)c2cc1OC (stereo not given) [ALFUZOSIN]
Compound NOT metabolized	Compound NOT metabolized	Compound NOT metabolized	Compound NOT metabolized	Compound NOT metabolized	Compound NOT metabolized	Compound NOT metabolized	Compound NOT metabolized	Compound NOT metabolized	Compound NOT metabolized	Compound NOT metabolized	Compound NOT metabolized	Compound NOT metabolized	Compound NOT metabolized	Compound metabolized	Compound NOT metabolized	Compound NOT metabolized	Compound NOT metabolized	Compound NOT metabolized	Compound NOT metabolized	NC12CC3CC(CC(C3)C1)C2 [AMANTADINE]
